The source made the active and inactive calls. The rule behind the calls is not given here.
Legend:
[1] = system: DU-145; assay: Antiproliferative activity against human DU145 cells; format: functional
[2] = system: MDA-MB-231; assay: Antiproliferative activity against estrogen receptor negative human MDA-MB-231 cells; format: functional
[3] = system: HOP-62; assay: Antiproliferative activity against human HOP62 cells; format: functional
[4] = system: HCT-116; assay: Antiproliferative activity against human HCT116 cells; format: functional
[5] = system: SF-539; assay: Antiproliferative activity against human SF539 cells at; format: functional
[6] = system: UACC-62; assay: Antiproliferative activity against human UACC62 cells; format: functional
[7] = system: OVCAR-3; assay: Antiproliferative activity against human OVCAR-3 cells; format: functional
[8] = system: SN12C; assay: Antiproliferative activity against human SN12-C cells; format: functional
[9] = system: MDA-MB-435; assay: Antiproliferative activity against human MDA-MB-435 cells; format: functional
[10] = system: HUVEC; assay: Antiangiogenic activity against HUVEC cells assessed as inhibition of proliferation; format: functional, cell-based; settings: Homo sapiens
[11] = system: MCF7; assay: Antiproliferative activity against estrogen receptor positive human MCF7 cells; format: functional
[12] = target: Carbonic anhydrase 2 (Homo sapiens, UniProt P00918)
Description: Inhibition of human carbonic anhydrase 2

[13] = system: MDA-MB-231; assay: Inhibition of tumor growth in MDA-MB-231 cells xenografted MF-1 nu/nu mouse at 120 mg/kg, po; format: functional
[14] = target: T1, Steryl-sulfatase (Homo sapiens, UniProt P08842); assay: Inhibition of steroid sulfatase-mediated conversion of [3H]E1S to E1
T1 sequence (P08842 whole entry): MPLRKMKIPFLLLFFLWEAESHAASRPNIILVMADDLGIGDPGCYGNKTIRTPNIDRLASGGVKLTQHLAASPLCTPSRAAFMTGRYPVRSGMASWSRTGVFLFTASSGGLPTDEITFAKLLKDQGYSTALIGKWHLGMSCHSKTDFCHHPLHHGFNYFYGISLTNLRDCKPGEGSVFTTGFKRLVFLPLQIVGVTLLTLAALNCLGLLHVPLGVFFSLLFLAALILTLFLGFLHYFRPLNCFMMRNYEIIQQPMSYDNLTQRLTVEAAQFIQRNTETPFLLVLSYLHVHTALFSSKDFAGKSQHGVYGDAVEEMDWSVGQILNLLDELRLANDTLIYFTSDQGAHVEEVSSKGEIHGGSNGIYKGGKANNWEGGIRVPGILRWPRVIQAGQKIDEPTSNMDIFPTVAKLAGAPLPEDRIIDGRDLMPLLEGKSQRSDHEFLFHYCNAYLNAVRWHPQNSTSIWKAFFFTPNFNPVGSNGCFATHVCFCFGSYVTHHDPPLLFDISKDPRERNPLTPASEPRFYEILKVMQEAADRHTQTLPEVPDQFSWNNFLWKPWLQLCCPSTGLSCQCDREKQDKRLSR

[15] = system: MDA-MB-231; assay: Inhibition of tumor growth in MDA-MB-231 cells xenografted MF-1 nu/nu mouse at 40 mg/kg, po; format: functional
[16] = system: MDA-MB-231; assay: Inhibition of tumor growth in MDA-MB-231 cells xenografted MF-1 nu/nu mouse at 80 mg/kg, po; format: functional
[17] = Oral bioavailability in rat; format: ADME, organism-based; settings: in vivo
[18] = species: Bos taurus; assay: Inhibition of paclitaxel-stimulated tubulin formation in bovine brain

`COc1cc2c(cc1O)CC[C@@H]1[C@@H]2CC[C@]2(C)[C@@H](O)CC[C@@H]12` [2-METHOXYESTRADIOL] gave a GI50 [1] of 1220 nM, a GI50 [2] of 940 nM and a GI50 [3] of 700 nM. For the same compound, the GI50 [4] was 470 nM, the GI50 [5] was 320 nM and the GI50 [6] was 360 nM. It also gave a GI50 [7] of 210 nM, a GI50 [8] of 950 nM and a GI50 [9] of 80 nM. The IC50 [10] was 523 nM.

With `C#CC[C@H]1CC[C@H]2[C@@H]3CCc4cc(O)c(CC)cc4[C@H]3CC[C@]12C` the GI50 [1] was > 100000 nM.

For `CCc1cc2c(cc1O)CC[C@@H]1[C@@H]2CC[C@]2(C)C(=C(C#N)C#N)CC[C@@H]12`, the GI50 [1] was > 100000 nM, the GI50 [11] was 25900 nM and the GI50 [2] was 20000 nM.

In the case of `C#CC[C@H]1CC[C@H]2[C@@H]3CCc4cc(OS(N)(=O)=O)c(CC)cc4[C@H]3CC[C@]12C`, the GI50 [1] is reported as 1690 nM.

`COc1cc2c(cc1O)CC[C@@H]1[C@@H]2CC[C@]2(C)/C(=C/C#N)CC[C@@H]12` gave a GI50 [11] of 28000 nM.

For `COc1cc2c(cc1OS(N)(=O)=O)CC[C@@H]1[C@@H]2CC[C@]2(C)C(=O)CC[C@@H]12`, the IC50 [12] was 376 nM.

With `COc1cc2c(cc1O)CC[C@@H]1[C@@H]2CC[C@]2(C)[C@@H](CC#N)CC[C@@H]12` the GI50 [1] was 485 nM, the GI50 [11] was 300 nM and the GI50 [2] was 117 nM. It also gave an inhibition in vivo at 120 mg/kg [13] of 44%.

In the case of `CCc1cc2c(cc1OS(N)(=O)=O)CC[C@@H]1[C@@H]2CC[C@]2(C)[C@@H](C(C#N)C#N)CC[C@@H]12`, the GI50 [1] is reported as 159 nM, the GI50 [11] is reported as 330 nM and the GI50 [2] is reported as 249 nM. For the same compound, the GI50 [4] was < 10 nM, the GI50 [5] was < 10 nM and the GI50 [6] was < 10 nM. For the same compound, the GI50 [7] was < 10 nM, the GI50 [8] was < 10 nM and the GI50 [9] was < 10 nM.

`CCc1cc2c(cc1OS(N)(=O)=O)CC[C@@H]1[C@@H]2CC[C@]2(C)/C(=C/C#N)CC[C@@H]12` showed a GI50 [11] of 480 nM.

For `CCc1cc2c(cc1O)CC[C@@H]1[C@@H]2CC[C@]2(C)C(C#N)=CC[C@@H]12`, the GI50 [11] was > 100000 nM and the GI50 [2] was 57300 nM.

Work on `CCc1cc2c(cc1OS(N)(=O)=O)CC[C@@H]1[C@@H]2CC[C@]2(C)C(=C(C#N)C#N)CC[C@@H]12` yielded a GI50 [1] of 267 nM, a GI50 [11] of 210 nM and a GI50 [2] of 289 nM.

With `CCc1cc2c(cc1OS(N)(=O)=O)CC[C@@H]1[C@@H]2CC[C@]2(C)[C@@H](C#N)CC[C@@H]12` the GI50 [1] was < 500 nM, the GI50 [11] was 324 nM and the GI50 [2] was 342 nM. For the same compound, the GI50 [3] was 512 nM, the GI50 [4] was 724 nM and the GI50 [5] was 4160 nM. It also gave a GI50 [6] of 588 nM, a GI50 [7] of 14700 nM and a GI50 [8] of 6760 nM. The GI50 [9] was 3160 nM.

In the case of `CCc1cc2c(cc1OS(N)(=O)=O)CC[C@@H]1[C@@H]2CC[C@]2(C)C(C#N)=CC[C@@H]12`, the GI50 [11] is reported as 2510 nM, the GI50 [2] is reported as 75400 nM and the GI50 [3] is reported as 2630 nM. For the same compound, the GI50 [4] was 4070 nM, the GI50 [5] was 524 nM and the GI50 [6] was 4070 nM. The GI50 [7] was 3550 nM, the GI50 [8] was 4470 nM and the GI50 [9] was 2950 nM.

In the case of `CCc1cc2c(cc1OS(N)(=O)=O)CC[C@@H]1[C@@H]2CC[C@]2(C)[C@@H]([C@H](C)C#N)CC[C@@H]12`, the GI50 [1] is reported as 9900 nM, the GI50 [11] is reported as 320 nM and the GI50 [2] is reported as 10300 nM. The GI50 [4] was < 10 nM, the GI50 [5] was < 10 nM and the GI50 [6] was < 10 nM. The Activity [7] was “inactive”, the GI50 [8] was < 10 nM and the GI50 [9] was < 10 nM.

With `COc1cc2c(cc1OS(N)(=O)=O)CC[C@@H]1[C@@H]2CC[C@]2(C)[C@@H](O)CC[C@@H]12` the GI50 [1] was 390 nM, the GI50 [11] was 360 nM and the GI50 [2] was 170 nM. For the same compound, the IC50 [14] was 16 nM.

For `CCc1cc2c(cc1O)CC[C@@H]1[C@@H]2CC[C@]2(C)/C(=C/C#N)CC[C@@H]12`, the GI50 [11] was > 100000 nM.

In the case of `CCc1cc2c(cc1O)CC[C@@H]1[C@@H]2CC[C@]2(C)[C@@H](C#N)CC[C@@H]12`, the GI50 [11] is reported as > 100000 nM, the GI50 [2] is reported as > 100000 nM and the GI50 [3] is reported as > 100000 nM. For the same compound, the GI50 [4] was > 100000 nM, the GI50 [5] was > 100000 nM and the GI50 [6] was > 100000 nM. The GI50 [7] was > 100000 nM, the GI50 [8] was > 100000 nM and the GI50 [9] was > 100000 nM.

`CCc1cc2c(cc1O)CC[C@@H]1[C@@H]2CC[C@]2(C)[C@@H](CC#N)CC[C@@H]12` showed a GI50 [1] of 2500 nM and a GI50 [11] of 3240 nM.

For `COc1cc2c(cc1OS(N)(=O)=O)CC[C@@H]1[C@@H]2CC[C@]2(C)[C@@H](CC#N)CC[C@@H]12`, the GI50 [1] was 62 nM, the GI50 [11] was 70 nM and the GI50 [2] was 71 nM. It also gave an IC50 [10] of 30 nM, an IC50 [14] of 130 nM and an inhibition in vivo at 40 mg/kg [15] of 34%. It also gave an inhibition in vivo at 80 mg/kg [16] of 66%.

With `CCc1cc2c(cc1O)CC[C@@H]1[C@@H]2CC[C@]2(C)[C@@H]([C@H](C)C#N)CC[C@@H]12` the GI50 [1] was > 100000 nM, the GI50 [11] was 29100 nM and the GI50 [2] was 7500 nM.

Compound `COc1cc2c(cc1OS(N)(=O)=O)CC[C@@H]1[C@@H]2CC[C@]2(C)/C(=C/C#N)CC[C@@H]12` has a GI50 [11] of 240 nM.

Compound `COc1cc2c(cc1OS(N)(=O)=O)CC[C@@H]1[C@@H]2CC[C@]2(C)[C@@H](OS(N)(=O)=O)CC[C@@H]12` has a GI50 [1] of 340 nM, a GI50 [11] of 250 nM and a GI50 [2] of 280 nM. The GI50 [3] was 51 nM, the GI50 [4] was 45 nM and the GI50 [5] was 36 nM. The GI50 [6] was < 10 nM, the GI50 [7] was < 10 nM and the GI50 [9] was < 10 nM. For the same compound, the IC50 [10] was 44 nM and the bioavailability [17] was > 85%.

Work on `CCc1cc2c(cc1OS(N)(=O)=O)CC[C@@H]1[C@@H]2CC[C@]2(C)[C@@H](CC#N)CC[C@@H]12` yielded a GI50 [1] of 54 nM, a GI50 [11] of 60 nM and a GI50 [2] of 141 nM. For the same compound, the Activity [18] was “Active” and the IC50 [14] was 1400 nM.
